Assay results: PubChem BioAssay AID2305 (GlaxoSmithKline (GSK), 2010)
pIC50: −log10 of the molar value. Several values for one entry are separate records, joined by “and”; a condition that tells them apart may be missing. Equal values may be shown once.

These compounds were tested on P. falciparum 3D7 growth, pLDH absorbance (assay: P. falciparum 3D7 growth inhibition, dose response, strain 3D7 (AID 2305)).

| SMILES | pIC50 |
| --- | --- |
| O=C(NCCc1ccccc1)N(Cc1ccccc1-c1cccc(CNC2CCCC2)c1)C1CCN(Cc2ccccc2)CC1 | 6.08 |
| CCN(CC)CCN(Cc1ccc(-c2ccc(C(F)(F)F)cc2)cc1)C(=O)CN1C(CCc2cccc(F)c2F)=NS(=O)(=O)c2ccccc21 | 6.62 |
| O=C(Nc1ccc(OC2CCN(Cc3ccccc3)C2)c(Cl)c1)c1cccs1 (configuration not stated) | 6.41 |
| CN(C)CCNCc1ccc(-c2ccc3c(Nc4ccc(Cl)cc4F)ccnc3c2)o1 | 6.68 |
| COc1cccc(NC(=O)CSc2nc(-c3ccccc3Cl)ns2)c1 | 6.09 |
| COc1ccc(-c2ccc(CN(C)C3CCC(NC(=O)c4cc5ccccc5[nH]4)CC3)cc2)cn1 (configuration not stated) | 6.06 |
| c1ccc(-c2cc(NCCCn3ccnc3)nc(-c3cccnc3)n2)cc1 | 6.01 |
| Cc1cc(F)ccc1[C@H]1CNCCN1C(=O)N(C)C(C)(C)c1cc(C(F)(F)F)cc(C(F)(F)F)c1 | 6.23 |
| CO/C(=C\C=C\c1cc2cc(Cl)c(Cl)cc2[nH]1)C(=O)NC1C[C@@H](C)N(C)[C@@H](C)C1 (some centres not stated) | 6.05 |
| CCc1ccccc1-c1csc(C(=O)NCC2CCN(Cc3ccc(C(C)(C)C)cc3)C2)c1 (configuration not stated) | 5.94 |
| CC1Cc2ccccc2N1S(=O)(=O)c1cc(OCC(F)(F)F)ccc1OCC(F)(F)F (configuration not stated) | 6.19 |
| O=C(Nc1cccc(-c2ccc(-c3nc4ccc(C(F)(F)F)cc4[nH]3)cc2)c1)Nc1ccc(F)c(F)c1F | 6.59 |
| COc1ccccc1C1CCN(C2CCC(NC(=O)/C=C/c3ccc(OC(F)(F)F)cc3)CC2)CC1 (configuration not stated) | 5.87 |
| CN1CCCC1CCNc1ncc2c(-c3ccc(NC(=O)Nc4cc(C(F)(F)F)ccc4F)cc3)nn(C)c2n1 (configuration not stated) | 6.47 |
| Cc1cc(NCCC(=O)Nc2ccccc2)nc(NCCc2cccs2)n1 | 6.05 |
| CC(=O)Nc1ccc(CN2CCC(NC(=O)c3ccc(-c4cccc(C(F)(F)F)c4)s3)CC2)cc1 | 6.05 |
| O=C(/C=C/c1ccc(Cl)c(Cl)c1)NCCCCCCN1CCCN(C(=O)Nc2ccc(F)c(Cl)c2)CC1 | 6.13 |
| CCCn1c(Sc2ccc(C#N)c([N+](=O)[O-])c2)nnc1-c1ccc(OC)cc1 | 6.07 |
| COc1ccccc1CCNc1nc(C)cc(N[C@@H](CC(C)C)C(=O)NCCc2ccccc2)n1 | 6.14 |
| CO/C(=C\C=C\c1cc2cc(Cl)ccc2[nH]1)C(=O)NCCCN1CCN(c2cc(Cl)ccc2OC)CC1 | 6.06 |
| Cn1cncc1-c1ccc2ncnc(Nc3ccc4c(cnn4Cc4ccccc4)c3)c2c1 | 6.74 |
| COc1cc(NC(=O)Nc2ccc([N+](=O)[O-])cc2OC)c(OC)cc1Cl | 5.83 |
| Cc1cc(OCC2CCCO2)c2cc(NC(=O)C(=O)Nc3ccc4nc(C)cc(OCC5CCCO5)c4c3)ccc2n1 (configuration not stated) | 6.10 |
| COc1cc(-c2ccccc2)ccc1C(=O)Nc1ccc2c(c1)N(C)CCC2 | 6.48 |
| COc1cc2c(cc1O)[C@@H]1[C@H](O)[C@@H](O)C=C3CCN(C2)[C@H]31 | 6.00 |

| SMILES | pIC50 |
| --- | --- |
| COc1ccc(CNC(=O)c2cnc3c(O)cccc3c2Nc2cccc(NC(=O)c3ccc(-c4ccccc4)cc3)c2)cc1 | 6.03 |
| Cc1cc2nc(-c3cc(Br)ccc3O)c(-c3cc(Br)ccc3O)nc2cc1C | 6.07 |
| O=C(Nc1ccon1)c1cc(-c2cccnc2)nc2ccc(Br)cc12 | 6.13 |
| Cc1cc(=O)c(-c2ccc(Oc3cccc(C(F)(F)F)c3)cc2)c(C)[nH]1 | 6.20 and 6.68 |
| COc1cc(C2CCCCC2)c(OC)cc1CC1c2cc(O)c(Cl)cc2CCN1C (configuration not stated) | 6.35 |
| COc1ccc2nc(-c3cc(-c4ccc(NC(C)=O)cc4)cnc3N)[nH]c2c1 | 5.91 |
| COc1cccc(-c2cc(C(F)(F)F)n3ncc(C(=O)Nc4cc(Cl)ccc4O)c3n2)c1 | 6.70 |
| Cc1cc(O)cc2c(C3CCN(CC4CCN(C(=O)/C=C/c5ccc(Cl)c(Cl)c5)CC4)CC3)c[nH]c12 | 5.96 |
| CCn1c2ccccc2c2cc(Cc3cnc(N)nc3N)ccc21 | 6.66 |
| CCOc1ccnc(=O)[nH]1 | 6.34 |
| O=[N+]([O-])c1ccc(Oc2ccccc2CNCC2CCN(CC3CCCCC3)CC2)cc1 | 6.05 |
| CC(CN(C)C)C(=O)Nc1ccc(-c2ccc(-c3nc4ccccc4[nH]3)s2)cc1 (configuration not stated) | 6.14 |
| CCc1nnc2sc(-c3cccc(NC(=O)c4ccc(C)c([N+](=O)[O-])c4)c3)nn12 | 5.85 |
| CN(c1ccccc1)S(=O)(=O)c1cccc(NC(=O)c2ccc(-n3ccnc3)c([N+](=O)[O-])c2)c1 | 5.95 |
| C=CCN(c1nc(NC)nc(NCc2c(OC)cccc2OC)n1)C1CCCC1 | 5.84 |
| O=C(/C=C/c1ccc(C(F)(F)F)cc1)NCCCCCN1CCCN(C(=O)Nc2ccc(F)c(Cl)c2)CC1 | 6.43 |
| COc1ccccc1Cc1c(C)nc2nc(N)nc(N)c2c1C | 6.24 |
| COc1ccccc1N=C1SC(=Cc2cn(CC(=O)N3CCCc4ccccc43)c3ccccc23)C(=O)N1C1CCCCC1 | 7.52 |
| CN(Cc1cccc(F)c1)C1CCN(c2cc(NC(=O)c3ccc(F)cc3)ccn2)C1 (configuration not stated) | 5.91 |
| O=C(/C=C/c1ccc(Cl)c(Cl)c1)NCCCCCN1CCCC(C(=O)Nc2ccc(F)c(Cl)c2)C1 (configuration not stated) | 6.05 |
| Cc1ccc(-c2nc(NC(=O)Nc3ccc(C(F)(F)F)cc3)sc2C)cc1Cl | 6.18 |
| Oc1c(Cl)cc(-c2ccccc2)cc1CNC1CCCCC1 | 6.12 |
| Cc1cccc2[nH]c(-c3ccc(-c4ccc(NC(=O)Nc5ccc(F)c(F)c5F)cc4)s3)nc12 | 6.74 |
| COc1ccc(-c2nc(NC(=O)CS(=O)(=O)c3ccc(OC)cc3)sc2C)cc1 | 6.52 |
| Cc1[nH]c(C)c(-c2ccc(-c3ccc(C(F)F)cc3)nc2)c(=O)c1Cl | 6.62 |

| SMILES | pIC50 |
| --- | --- |
| CN1CCC(NCc2cccc(-c3cccc(-c4nc5ccc(C(F)(F)F)cc5[nH]4)c3)c2)CC1 | 6.85 |
| Cc1cc(C2CCCCN2C)ccc1-c1ccc(C(=O)N2CCc3cc4c(cc32)C2(CCN(C)CC2)CO4)cc1 (configuration not stated) | 6.10 |
| CCCCc1cc(O)c2c(c1)OC(C)(C)C=C2C1=CCN(Cc2ccccc2)CC1 | 6.60 |
| COc1cc(Cc2cnc(N)nc2N)cc(OCCCCCC(N)=O)c1OC | 5.92 |
| Cc1ccc(NC(=O)c2cccc(N3CCN(c4ccncc4)CC3)c2)cc1F | 5.89 |
| c1cc(CN2CCN(CCN3CCOCC3)CC2)cc(-c2cccc(-c3nc4ccccc4[nH]3)c2)c1 | 6.62 |
| CCOc1cc2ccccc2cc1CNCCCCCCNCc1cc2ccccc2cc1OCC | 6.01 |
| Cc1cccc2[nH]c(-c3cccc(-c4ccc(NC(=O)C(C)CN5CCOCC5)cc4)c3)nc12 (configuration not stated) | 6.16 |
| COc1cccc2cc(C(=O)N[C@@H](CC(C)C)C(=O)N[C@H](/C=N/NC(=O)Cc3cccnc3)CCc3ccccc3)oc12 | 6.02 |
| Nc1cc(-c2ccc3ccccc3c2)nc2ccccc12 | 6.15 |
| CCN(C(=O)CSc1cc(C)c2cc(C)cc(C)c2n1)C1CCS(=O)(=O)C1 (configuration not stated) | 6.17 |
| N#Cc1ccc(-c2ccc(C(=O)NCCCCN3CC=C(c4ccc5c(c4OCC4CC4)CCCC5)CC3)cc2)cc1 | 6.21 |
| Cc1cc(N(C)C)nc(Nc2ccc(NC(=O)COc3ccccc3)cc2)n1 | 5.75 |
| N=c1n(Cc2ccc(Cl)cc2)c2ccccc2n1CC(O)c1ccc(Cl)c(Cl)c1 (configuration not stated) | 6.17 |
| Cc1cccc(Oc2cccc3[nH]nc(N)c23)c1 | 5.98 |
| CC(C)NCc1cccc(-c2cccc(NC(=O)c3cccc(Cl)c3)c2)c1 | 6.23 |
| CNc1nc(Nc2ccccc2C)nc2ccccc12 | 6.36 |
| COc1c(C2CCN(CCCCNC(=O)c3ccc(-c4ccc(Cl)cc4)cc3)CC2)ccc2c1C(C)(C)CCC2(C)C | 6.11 |
| COc1ccc(N2CCc3c(-c4cccc5cnccc45)cc(C)nc32)c(C)c1 | 6.18 |
| COc1c(CNCCCCCCNCc2cc(Cl)c3ccccc3c2OC)cc(Cl)c2ccccc12 | 6.03 |
| N#Cc1ccnc(-c2ccc(CNC3CCN(CC4Cn5c(=O)ccc6ccc(F)c4c65)CC3)cc2)c1 (configuration not stated) | 5.91 |
| CCN(CC)CCNc1nccc(N(C)c2ccc(NC(=O)Nc3cc(C(F)(F)F)ccc3F)cc2)n1 | 6.26 |
| O=C(Nc1cccc(-c2ccc(-c3nc4ccc(F)cc4[nH]3)cc2)c1)c1csnn1 | 6.55 |
| COc1ccccc1-c1nc2nc(N)nc(N)c2nc1-c1ccccc1OC | 5.90 |
| Cc1oc(-c2cccc(Oc3ccccc3)c2)nc1CN(Cc1cnn(C)c1)C(C)C | 5.96 |

| SMILES | pIC50 |
| --- | --- |
| CC(C)NC(C)(C)CN(Cc1ccc(-c2ccc(C(F)(F)F)cc2)cc1)C(=O)Cn1c(CCc2cccc(F)c2F)nc(=O)c2ccccc21 | 6.04 |
| Cc1c[nH]c2ccc(/C=C/C(=O)NC3CCC(CCN4CCc5ccc(C#N)cc5CC4)CC3)cc12 (configuration not stated) | 6.08 |
| O=C(Nc1cccc(CN2CCCN(Cc3ccc(O)cc3)CC2)c1)c1ccc(Cl)c(Cl)c1 | 6.59 |
| CCOC(=O)Cn1ccc2c(NCc3ccccc3)nc(C)nc21 | 6.43 |
| CN(CCCNCc1cccc2ccccc12)CCCNCc1cccc2ccccc12 | 6.14 |
| CN1CCC[C@H]1COc1ccc(CN2CC[C@H](NC(=O)c3ccc(Cl)c(Cl)c3)C2)cc1Cl | 5.94 |
| O=C(CCc1cnc[nH]1)Nc1cccc(-c2cccc(-c3nc4ccccc4[nH]3)c2)c1 | 6.18 |
| CC(C)(C)C(=O)Nc1ccc(N2CCN(C(c3ccccc3)c3ccccc3)CC2)c(Cl)c1 | 6.18 |
| CS(=O)(=O)c1ccc(CNCc2ccc(-c3cccc(-c4nc5ccccc5[nH]4)c3)cc2)cc1 | 6.48 |
| Cc1ccc(C(=O)Nc2cccc(CN3CCCN(Cc4ccc(O)cc4)CC3)c2)cc1 | 5.96 |
| O=C(Nc1ccc(C(=O)Nc2cccc(C3=NCCN3)c2)cc1)Nc1ccc(C2=NCCN2)cc1 | 7.00 |
| O=C(/C=C/c1ccc(Cl)c(Cl)c1)NCCCCCN1CCC(NC(=O)NCCc2ccccc2)CC1 | 6.14 |
| O=C(NC1CCN(Cc2ccccc2)CC1)c1ccc2c(=O)n(Cc3ccc(Cl)cc3)c(=S)[nH]c2c1 | 6.00 |
| CN(C)c1cccc(CCNCCc2c[nH]c3ccc(Cl)cc23)c1 | 6.36 |
| CCc1ccc(C2=Nn3c(nnc3-c3cccs3)SC2)cc1 | 5.89 |
| COc1cc(C)ccc1N1CCN(CCCCNC(=O)c2ccc(NC(=O)c3ccc(Cl)cc3)cc2)CC1 | 6.15 |
| O=C(Nc1cccc(Cl)c1Cl)NC1CCN(Cc2cccc(O)c2)CC1 | 6.10 |
| N#Cc1cccc(NC(=O)c2cccc(S(=O)(=O)NC3CCN(CC4CCCCC4)C3)c2)c1 (configuration not stated) | 6.24 |
| N=C(N)c1ccc(NC(=O)c2cc(Sc3ccc(O)c(C(=O)Nc4ccc(C(=N)N)cc4)c3)ccc2O)cc1 | 6.92 |
| COc1cc2nc(NC3CCN(Cc4ccccc4)CC3)nc(N)c2cc1OC | 6.77 |
| CCN(CC)CCN(Cc1ccc(-c2ccc(C(F)(F)F)cc2)cc1)C(=O)Cn1c(CCc2ccc(F)c(F)c2)cc(=O)c2ccccc21 | 6.05 |
| Nc1nc(N)c2cc(NS(=O)(=O)c3ccc(-c4ccccc4)cc3)ccc2n1 | 6.15 |
